Source: ChEMBL document CHEMBL1122674, “Aporphines. 58. N-(2-chloroethyl) [8,9-2H]norapomorphine, an irreversible ligand for dopamine receptors: synthesis and application” (J Med Chem, 1984)

Columns and labels:
Dopamine receptor = assay: Compound was evaluated for the competitive binding with [3H]spiperone binding to Canine striatal membranes.; parameters: species or system Canis lupus familiaris
[1] = molecular target: Dopamine receptor (Homo sapiens) (UniProt P14416+P35462+P21918+P21917+P21728); assay: Compound was evaluated at 100 uM concentration to displace [3H]spiperone and result indicates the percent displacement.; assay type: protein assay; settings: Canis lupus familiaris

`Oc1ccc2c(c1O)-c1cccc3c1[C@@H](C2)N(CCCl)CC3` showed an IC50 app (Dopamine receptor) of 8 µM and a Displacement [1] of 70%.
